The values below come from patent publication US9708337B2, “Aryl amide-based kinase inhibitors” (Bristol-Myers Squibb Company, priority 2013, dated 2017).

By IC50 is commonly meant the concentration needed to halve the response being measured.

In one experiment the target is AAK1 (GST-Xa-hAAK1) (Homo sapiens (Human), UniProt Q2M2I8). The experiment in a line: AAK1 Kinase Assay.
Sequence of AAK1 (GST-Xa-hAAK1) (Q2M2I8 whole entry): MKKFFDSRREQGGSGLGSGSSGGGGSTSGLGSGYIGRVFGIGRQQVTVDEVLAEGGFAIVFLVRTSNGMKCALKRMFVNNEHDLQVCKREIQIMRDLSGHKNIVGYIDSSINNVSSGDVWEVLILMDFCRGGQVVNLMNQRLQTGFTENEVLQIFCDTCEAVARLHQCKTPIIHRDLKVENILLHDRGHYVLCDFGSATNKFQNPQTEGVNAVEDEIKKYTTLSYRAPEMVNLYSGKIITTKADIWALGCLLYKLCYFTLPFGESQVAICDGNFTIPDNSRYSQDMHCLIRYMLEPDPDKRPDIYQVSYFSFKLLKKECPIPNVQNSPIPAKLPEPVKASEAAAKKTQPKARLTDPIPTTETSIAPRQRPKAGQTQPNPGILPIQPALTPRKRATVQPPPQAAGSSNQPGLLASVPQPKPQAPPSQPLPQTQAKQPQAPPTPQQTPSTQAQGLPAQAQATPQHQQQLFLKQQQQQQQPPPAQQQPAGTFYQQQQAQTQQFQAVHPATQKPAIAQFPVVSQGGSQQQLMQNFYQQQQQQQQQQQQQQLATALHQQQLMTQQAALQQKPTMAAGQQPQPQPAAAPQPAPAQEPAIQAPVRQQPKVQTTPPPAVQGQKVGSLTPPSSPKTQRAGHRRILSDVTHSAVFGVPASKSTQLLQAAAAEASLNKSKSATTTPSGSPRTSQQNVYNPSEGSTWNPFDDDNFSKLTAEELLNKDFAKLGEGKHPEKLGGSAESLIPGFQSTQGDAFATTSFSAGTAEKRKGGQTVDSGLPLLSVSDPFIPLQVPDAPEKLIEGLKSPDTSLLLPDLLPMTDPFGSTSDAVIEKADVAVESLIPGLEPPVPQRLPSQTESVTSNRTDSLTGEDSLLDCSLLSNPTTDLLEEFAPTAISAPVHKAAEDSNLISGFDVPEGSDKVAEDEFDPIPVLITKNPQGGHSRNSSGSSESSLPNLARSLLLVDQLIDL
Settings: not given
It counts as biochemical. On the procedure: The assays were performed in U-bottom 384-well plates. […] The reactions were initiated by the combination of bacterially expressed, GST-Xa-hAAK1 with substrates and test compounds. The reactions were incubated at room temperature for 3 hours and terminated by adding 60 μl of 35 mM EDTA buffer to each sample. […] Compounds were dissolved at 10 mM in dimethylsulfoxide (DMSO) and evaluated at eleven concentrations. IC50 values were derived by non-linear regression analysis.
Regarding `CC(C)C[C@@H](N)C(=O)Nc1ccc2c(c1)OCc1cnccc1-2` [Example 1, (R)-2-amino-N-(5H-chromeno[3,4-c]pyridin-8-yl)-4-methylpentanamide], the IC50 was 1 to 10 nM. The same measure, in the same setting: the result for `CC(C)C[C@H](N)C(=O)Nc1ccc2c(c1)OCc1cnccc1-2` [Example 2, (S)-2-amino-N-(5H-chromeno[3,4-c]pyridin-8-yl)-4-methylpentanamide] reads 1 to 10 nM; that for `CC(C)C[C@@H](N)C(=O)Nc1ccc2c(c1)OC(C)(C)c1cnccc1-2` [Example 8, (R)-2-amino-N-(5,5-dimethyl-5H-chromeno[3,4-c]pyridin-8-yl)-4-methylpentanamide], 10 to 100 nM; that for `CC(C)(C)COC(=O)Nc1ccc2c(c1)OCc1cnccc1-2` [Example 12, neopentyl 5H-chromeno[3,4-c]pyridin-8-ylcarbamate], 100 to 1200 nM. The same measure, in the same setting: the result for `O=C(Nc1ccc2c(c1)OCc1cnccc1-2)NC1CCCCC1` [Example 13, 1-(5H-chromeno[3,4-c]pyridin-8-yl)-3-cyclohexylurea] reads 100 to 1200 nM. In the case of `C#CCCC(=O)Nc1ccc2c(c1)OCc1cnccc1-2` [Example 14, N-(5H-chromeno[3,4-c]pyridin-8-yl)pent-4-ynamide], the IC50 was 10 to 100 nM.

For `CC(=O)Nc1ccc2c(c1)OCc1cnccc1-2` [Example 17, N-(5H-chromeno[3,4-c]pyridin-8-yl)acetamide], the half-inhibitory concentration (IC50) was 100 to 1200 nM.

Consider `COCCC(=O)Nc1ccc2c(c1)OCc1cnccc1-2` [Example 18, N-(5H-chromeno[3,4-c]pyridin-8-yl)-3-methoxypropanamide], for which the IC50 was 100 to 1200 nM. With `O=C(CCO)Nc1ccc2c(c1)OCc1cnccc1-2` [Example 19, N-(5H-chromeno[3,4-c]pyridin-8-yl)-3-hydroxypropanamide], the IC50 was in the range of 100 to 1200 nM. With `N#CC1(C(=O)Nc2ccc3c(c2)OCc2cnccc2-3)CC1` [Example 20, N-(5H-chromeno[3,4-c]pyridin-8-yl)-1-cyanocyclopropanecarboxamide], the concentration for half-maximal inhibition (IC50) is 100 to 1200 nM. On the same count and under the same terms, next, `NS(=O)(=O)CCCC(=O)Nc1ccc2c(c1)OCc1cnccc1-2` [Example 21, N-(5H-chromeno[3,4-c]pyridin-8-yl)-4-sulfamoylbutanamide]: 100 to 1200 nM; `O=C(Nc1ccc2c(c1)OCc1cnccc1-2)C1CCCCC1` [Example 23, N-(5H-chromeno[3,4-c]pyridin-8-yl)cyclohexanecarboxamide]: 100 to 1200 nM. Consider `CC(C)C(=O)Nc1ccc2c(c1)OCc1cnccc1-2` [Example 24, N-(5H-chromeno[3,4-c]pyridin-8-yl)isobutyramide], for which the IC50 was 100 to 1200 nM. The same measure, in the same setting: the result for `N#CCC(=O)Nc1ccc2c(c1)OCc1cnccc1-2` [Example 25, N-(5H-chromeno[3,4-c]pyridin-8-yl)-2-cyanoacetamide] reads 100 to 1200 nM; that for `CC(C)(C)CC(=O)Nc1ccc2c(c1)OCc1cnccc1-2` [Example 26, N-(5H-chromeno[3,4-c]pyridin-8-yl)-3,3-dimethylbutanamide], 10 to 100 nM; that for `CC(C)CC(=O)Nc1ccc2c(c1)OCc1cnccc1-2` [Example 27, N-(5H-chromeno[3,4-c]pyridin-8-yl)-3-methylbutanamide], 10 to 100 nM. Still for that read-out and setting: next, `CCC(=O)Nc1ccc2c(c1)OCc1cnccc1-2` [Example 28, N-(5H-chromeno[3,4-c]pyridin-8-yl)propionamide]: 100 to 1200 nM; `COC(=O)CCC(=O)Nc1ccc2c(c1)OCc1cnccc1-2` [Example 29, methyl 4-((5H-chromeno[3,4-c]pyridin-8-yl)amino)-4-oxobutanoate]: 100 to 1200 nM; `CCCC(=O)Nc1ccc2c(c1)OCc1cnccc1-2` [Example 31, N-(5H-chromeno[3,4-c]pyridin-8-yl)butyramide]: 10 to 100 nM. With `CC(C)(C)C(=O)Nc1ccc2c(c1)OCc1cnccc1-2` [Example 32, N-(5H-chromeno[3,4-c]pyridin-8-yl)pivalamide], the IC50 fell in the range of 100 to 1200 nM.

`CCCCC(=O)Nc1cc2c(cc1Br)-c1ccncc1CO2` [Example 34, N-(9-bromo-5H-chromeno[3,4-c]pyridin-8-yl)pentanamide]: the IC50 is 10 to 100 nM. On the same count and under the same terms, next, `N[C@H](CNc1ccc2c(c1)OCc1cnccc1-2)c1ccccc1` [Example 37, (S)—N^1-(5H-chromeno[3,4-c]pyridin-8-yl)-2-phenylethane-1,2-diamine]: 10 to 100 nM.

The experiment is the same for the next values; noted with them: Table 1a, listed as IC50 ranges; ATP 22 μM; read-out: AAK1 IC50.
For `CC(C)C[C@H](N)C(=O)Nc1ccc2c(c1)oc(=O)c1cnccc12` [Example 11, (S)-2-amino-4-methyl-N-(5-oxo-5H-chromeno[3,4-c]pyridin-8-yl)pentanamide], the half-inhibitory concentration (IC50) was in the range of 100 to 1200 nM. On the same count and under the same terms, next, `N#CCCC(=O)Nc1ccc2c(c1)OCc1cnccc1-2` [Example 16, N-(5H-chromeno[3,4-c]pyridin-8-yl)-3-cyanopropanamide]: 100 to 1200 nM; `CC(C)CCC(=O)Nc1ccc2c(c1)OCc1cnccc1-2` [Example 30, N-(5H-chromeno[3,4-c]pyridin-8-yl)-4-methylpentanamide]: 10 to 100 nM. Still for that read-out and setting: the result for `CN(C)CC(=O)Nc1ccc2c(c1)OCc1cnccc1-2` [Example 33, N-(5H-chromeno[3,4-c]pyridin-8-yl)-2-(dimethylamino)acetamide] reads 100 to 1200 nM; that for `CC(=O)Nc1cc2c(cn1)COc1cc(NC(=O)[C@@H](N)CC(C)C)ccc1-2` [Example 35, (S)—N-(2-acetamido-5H-chromeno[3,4-c]pyridin-8-yl)-2-amino-4-methylpentanamide], 10 to 100 nM.

The experiment is the same for the next values; noted with them: Table 1a, numeric values; ATP 22 μM; read-out: AAK1 IC50.
Take `CC(C)C[C@H](N)C(=O)Nc1ccc2c(c1)OC(C)(C)c1cnccc1-2` [Example 9, (S)-2-amino-N-(5,5-dimethyl-5H-chromeno[3,4-c]pyridin-8-yl)-4-methylpentanamide]: the IC50 was 129 nM.

For `CC(C)C1CCCNC1C(=O)Nc1ccc2c(c1)OCc1cnccc1-2` (centres unmarked) [Example 10, N-(5H-chromeno[3,4-c]pyridin-8-yl)-3-isopropylpiperidine-2-carboxamide], the IC50 worked out at 1.3 nM. Same read-out and setting: next, `CCCCC(=O)Nc1ccc2c(c1)OCc1cnccc1-2` [Example 15, N-(5H-chromeno[3,4-c]pyridin-8-yl)pentanamide]: 26 nM; `O=C(CCN1CCCC1=O)Nc1ccc2c(c1)OCc1cnccc1-2` [Example 22, N-(5H-chromeno[3,4-c]pyridin-8-yl)-3-(2-oxopyrrolidin-1-yl)propanamide]: 1200 nM; `N[C@H](C(=O)Nc1ccc2c(c1)OCc1cnccc1-2)c1ccccc1` [Example 36, (S)-2-amino-N-(5H-chromeno[3,4-c]pyridin-8-yl)-2-phenylacetamide]: 8.9 nM.
